From ChEMBL document CHEMBL4251714, “Isolation, Characterization, and Structure-Activity Relationship Analysis of Abietane Diterpenoids from Callicarpa bodinieri as Spleen Tyrosine Kinase Inhibitors” (J Nat Prod, 2018)
Each block holds one molecule with its values, some of them ahead of it.

How the values were obtained:
[1] = Inhibition of PKA (unknown origin) by mobility shift assay; parameters: species or system Homo sapiens
[2] = target: T1, Tyrosine-protein kinase JAK3 (Homo sapiens, UniProt P52333); experiment: Inhibition of JAK3 (unknown origin) by mobility shift assay
T1 sequence (P52333 whole entry): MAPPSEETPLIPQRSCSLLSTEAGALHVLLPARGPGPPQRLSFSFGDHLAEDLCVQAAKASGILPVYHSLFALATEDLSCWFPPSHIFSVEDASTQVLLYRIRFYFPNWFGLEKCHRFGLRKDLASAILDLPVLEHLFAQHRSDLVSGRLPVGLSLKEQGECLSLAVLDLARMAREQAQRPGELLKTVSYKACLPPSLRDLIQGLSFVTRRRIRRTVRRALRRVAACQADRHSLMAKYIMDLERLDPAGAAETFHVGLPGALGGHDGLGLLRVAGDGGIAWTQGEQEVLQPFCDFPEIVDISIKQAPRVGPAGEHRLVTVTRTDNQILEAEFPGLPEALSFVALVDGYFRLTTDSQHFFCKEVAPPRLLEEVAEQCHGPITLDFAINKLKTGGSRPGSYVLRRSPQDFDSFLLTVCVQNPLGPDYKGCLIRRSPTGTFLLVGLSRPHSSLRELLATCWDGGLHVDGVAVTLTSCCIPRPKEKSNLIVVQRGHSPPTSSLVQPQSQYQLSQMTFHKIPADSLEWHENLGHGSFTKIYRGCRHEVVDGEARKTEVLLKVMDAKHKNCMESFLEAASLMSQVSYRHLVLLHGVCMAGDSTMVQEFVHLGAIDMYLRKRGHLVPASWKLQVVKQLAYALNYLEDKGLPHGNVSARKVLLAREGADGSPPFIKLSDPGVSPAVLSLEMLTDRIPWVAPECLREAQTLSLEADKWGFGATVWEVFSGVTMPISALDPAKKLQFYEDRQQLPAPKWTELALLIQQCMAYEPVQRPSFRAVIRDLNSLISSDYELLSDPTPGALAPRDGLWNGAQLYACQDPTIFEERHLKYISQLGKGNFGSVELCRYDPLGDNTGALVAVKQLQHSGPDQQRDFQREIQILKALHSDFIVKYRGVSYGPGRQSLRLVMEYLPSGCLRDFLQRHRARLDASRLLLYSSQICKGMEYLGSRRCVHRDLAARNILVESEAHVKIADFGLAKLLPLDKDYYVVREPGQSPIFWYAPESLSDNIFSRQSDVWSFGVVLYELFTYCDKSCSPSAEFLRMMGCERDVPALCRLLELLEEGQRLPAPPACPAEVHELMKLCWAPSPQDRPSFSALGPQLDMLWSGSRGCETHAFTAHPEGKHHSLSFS

[3] = target: Focal adhesion kinase 1 (Homo sapiens) (UniProt Q05397); experiment: Inhibition of FAK (unknown origin) at 50 ug/ml by Lanthascreen assay relative to control
[4] = target: Serine/threonine-protein kinase B-raf (Homo sapiens) (UniProt P15056); experiment: Inhibition of BRAF (unknown origin) at 50 ug/ml by Lanthascreen assay relative to control
Serine/threonine-protein kinase B-raf (Homo sapiens), sequence (P15056 whole entry): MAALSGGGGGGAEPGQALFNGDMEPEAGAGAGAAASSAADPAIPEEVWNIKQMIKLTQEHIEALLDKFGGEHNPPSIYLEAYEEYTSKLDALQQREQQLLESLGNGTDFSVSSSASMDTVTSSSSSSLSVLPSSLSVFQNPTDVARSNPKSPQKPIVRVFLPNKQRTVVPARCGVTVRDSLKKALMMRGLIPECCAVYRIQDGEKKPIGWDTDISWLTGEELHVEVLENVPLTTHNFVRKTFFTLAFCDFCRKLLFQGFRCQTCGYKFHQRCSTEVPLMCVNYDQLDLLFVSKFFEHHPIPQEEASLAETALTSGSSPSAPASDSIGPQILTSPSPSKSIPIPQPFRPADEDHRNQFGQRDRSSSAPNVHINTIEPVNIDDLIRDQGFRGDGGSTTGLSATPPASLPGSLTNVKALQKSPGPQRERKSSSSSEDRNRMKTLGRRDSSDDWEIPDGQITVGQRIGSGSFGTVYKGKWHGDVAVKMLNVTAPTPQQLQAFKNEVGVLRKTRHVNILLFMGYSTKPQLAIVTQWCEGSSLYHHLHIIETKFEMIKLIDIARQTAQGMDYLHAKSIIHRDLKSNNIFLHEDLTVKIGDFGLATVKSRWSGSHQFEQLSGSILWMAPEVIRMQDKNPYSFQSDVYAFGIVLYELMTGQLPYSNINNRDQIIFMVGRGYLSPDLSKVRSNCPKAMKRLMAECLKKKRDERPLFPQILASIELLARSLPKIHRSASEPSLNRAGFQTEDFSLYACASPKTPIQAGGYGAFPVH

[5] = organism: Homo sapiens; experiment: Inhibition of PKA (unknown origin) at 50 ug/ml by mobility shift assay relative to control
[6] = target: ALK tyrosine kinase receptor (Homo sapiens) (UniProt Q9UM73); experiment: Inhibition of ALK (unknown origin) at 50 ug/ml by mobility shift assay relative to control
ALK tyrosine kinase receptor (Homo sapiens), sequence (Q9UM73 19-1620 limits assumed): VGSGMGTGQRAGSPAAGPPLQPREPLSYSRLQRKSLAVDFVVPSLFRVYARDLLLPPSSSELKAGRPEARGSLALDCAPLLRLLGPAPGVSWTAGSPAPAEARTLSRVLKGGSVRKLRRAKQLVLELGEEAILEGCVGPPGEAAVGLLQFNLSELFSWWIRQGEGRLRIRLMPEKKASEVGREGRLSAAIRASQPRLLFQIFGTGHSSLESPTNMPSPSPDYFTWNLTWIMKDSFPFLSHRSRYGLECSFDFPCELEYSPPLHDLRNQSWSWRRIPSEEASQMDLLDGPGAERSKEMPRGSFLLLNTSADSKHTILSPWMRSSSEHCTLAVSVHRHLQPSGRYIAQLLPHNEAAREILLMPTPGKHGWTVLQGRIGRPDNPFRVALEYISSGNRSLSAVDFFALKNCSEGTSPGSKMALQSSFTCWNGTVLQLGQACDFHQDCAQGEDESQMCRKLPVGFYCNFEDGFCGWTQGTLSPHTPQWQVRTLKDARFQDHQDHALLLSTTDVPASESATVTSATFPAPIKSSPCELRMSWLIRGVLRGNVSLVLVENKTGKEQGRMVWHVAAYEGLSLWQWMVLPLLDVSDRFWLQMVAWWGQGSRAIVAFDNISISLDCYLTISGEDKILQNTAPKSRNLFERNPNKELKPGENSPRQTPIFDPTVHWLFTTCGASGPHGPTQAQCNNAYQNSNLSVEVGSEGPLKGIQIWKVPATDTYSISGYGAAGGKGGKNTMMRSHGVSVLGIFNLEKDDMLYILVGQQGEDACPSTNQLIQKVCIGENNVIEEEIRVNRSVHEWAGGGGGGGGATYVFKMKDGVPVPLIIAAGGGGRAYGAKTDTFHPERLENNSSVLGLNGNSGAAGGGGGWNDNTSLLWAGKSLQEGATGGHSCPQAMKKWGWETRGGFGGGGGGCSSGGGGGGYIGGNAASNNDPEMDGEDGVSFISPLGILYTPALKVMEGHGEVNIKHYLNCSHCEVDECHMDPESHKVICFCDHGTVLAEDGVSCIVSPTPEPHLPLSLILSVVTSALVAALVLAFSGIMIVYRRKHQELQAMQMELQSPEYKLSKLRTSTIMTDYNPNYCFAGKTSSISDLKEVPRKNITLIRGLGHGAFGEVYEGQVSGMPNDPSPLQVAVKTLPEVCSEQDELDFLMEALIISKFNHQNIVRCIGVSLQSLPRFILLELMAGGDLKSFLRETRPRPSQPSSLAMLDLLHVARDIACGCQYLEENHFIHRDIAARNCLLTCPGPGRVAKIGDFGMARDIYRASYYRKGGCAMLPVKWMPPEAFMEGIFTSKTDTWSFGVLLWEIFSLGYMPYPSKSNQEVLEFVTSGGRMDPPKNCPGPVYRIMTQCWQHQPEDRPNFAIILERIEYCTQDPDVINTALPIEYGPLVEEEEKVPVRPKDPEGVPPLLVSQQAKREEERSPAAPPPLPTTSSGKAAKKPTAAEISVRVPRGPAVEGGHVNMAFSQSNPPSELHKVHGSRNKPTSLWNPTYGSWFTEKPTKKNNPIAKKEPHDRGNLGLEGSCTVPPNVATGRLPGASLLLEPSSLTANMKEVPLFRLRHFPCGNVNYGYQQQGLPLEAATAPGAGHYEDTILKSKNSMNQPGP

[7] = target: T2, JAK3 (Tyrosine-protein kinase JAK3) (Homo sapiens, UniProt P52333); experiment: Inhibition of JAK3 (unknown origin) at 50 ug/ml by mobility shift assay relative to control; conditions: JAK3 kinase (single protein, unknown origin)
T2 sequence (P52333 whole entry): T1 sequence (P52333 whole entry)

[8] = target: T3, Tyrosine-protein kinase ZAP-70 (Homo sapiens) (UniProt P43403); experiment: Inhibition of ZAP70 (unknown origin) at 50 ug/ml by mobility shift assay relative to control
T3 sequence (whole entry): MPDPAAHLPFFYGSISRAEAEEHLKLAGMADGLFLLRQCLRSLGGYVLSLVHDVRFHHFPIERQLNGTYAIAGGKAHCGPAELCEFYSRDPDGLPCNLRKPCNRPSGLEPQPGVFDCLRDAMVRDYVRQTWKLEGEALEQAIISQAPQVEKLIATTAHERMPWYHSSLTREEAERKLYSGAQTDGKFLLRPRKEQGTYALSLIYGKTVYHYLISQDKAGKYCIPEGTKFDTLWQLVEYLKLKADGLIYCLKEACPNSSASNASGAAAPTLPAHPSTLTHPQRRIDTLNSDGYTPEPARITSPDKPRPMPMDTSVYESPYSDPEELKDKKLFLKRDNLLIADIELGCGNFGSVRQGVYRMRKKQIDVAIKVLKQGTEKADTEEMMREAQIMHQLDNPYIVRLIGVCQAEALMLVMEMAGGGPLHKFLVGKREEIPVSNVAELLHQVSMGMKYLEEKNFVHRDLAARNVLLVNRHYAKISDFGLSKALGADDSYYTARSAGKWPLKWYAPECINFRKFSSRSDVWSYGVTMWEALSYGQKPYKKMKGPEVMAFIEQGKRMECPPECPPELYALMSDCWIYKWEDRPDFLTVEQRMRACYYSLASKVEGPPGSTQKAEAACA

[9] = target: Proto-oncogene tyrosine-protein kinase Src (Homo sapiens) (UniProt P12931); experiment: Inhibition of SRC (unknown origin) at 50 ug/ml by mobility shift assay relative to control
Proto-oncogene tyrosine-protein kinase Src (Homo sapiens), sequence (P12931 2-536 limits assumed): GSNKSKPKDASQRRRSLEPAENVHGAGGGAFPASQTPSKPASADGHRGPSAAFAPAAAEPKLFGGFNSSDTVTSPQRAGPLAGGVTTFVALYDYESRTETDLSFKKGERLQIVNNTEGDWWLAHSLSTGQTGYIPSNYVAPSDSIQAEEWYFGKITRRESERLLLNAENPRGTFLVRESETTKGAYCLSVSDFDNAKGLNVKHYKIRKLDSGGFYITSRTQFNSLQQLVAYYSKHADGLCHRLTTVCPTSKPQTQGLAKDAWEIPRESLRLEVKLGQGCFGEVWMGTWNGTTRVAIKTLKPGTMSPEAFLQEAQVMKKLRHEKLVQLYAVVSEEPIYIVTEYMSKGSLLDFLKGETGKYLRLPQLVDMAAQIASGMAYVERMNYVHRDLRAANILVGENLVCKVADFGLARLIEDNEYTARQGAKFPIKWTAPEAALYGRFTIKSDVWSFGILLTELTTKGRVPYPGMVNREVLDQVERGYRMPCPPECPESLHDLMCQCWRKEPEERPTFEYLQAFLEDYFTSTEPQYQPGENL

[10] = target: RAC-alpha serine/threonine-protein kinase (Homo sapiens) (UniProt P31749); experiment: Inhibition of AKT1 (unknown origin) at 50 ug/ml by mobility shift assay relative to control
RAC-alpha serine/threonine-protein kinase (Homo sapiens), sequence (P31749 whole entry): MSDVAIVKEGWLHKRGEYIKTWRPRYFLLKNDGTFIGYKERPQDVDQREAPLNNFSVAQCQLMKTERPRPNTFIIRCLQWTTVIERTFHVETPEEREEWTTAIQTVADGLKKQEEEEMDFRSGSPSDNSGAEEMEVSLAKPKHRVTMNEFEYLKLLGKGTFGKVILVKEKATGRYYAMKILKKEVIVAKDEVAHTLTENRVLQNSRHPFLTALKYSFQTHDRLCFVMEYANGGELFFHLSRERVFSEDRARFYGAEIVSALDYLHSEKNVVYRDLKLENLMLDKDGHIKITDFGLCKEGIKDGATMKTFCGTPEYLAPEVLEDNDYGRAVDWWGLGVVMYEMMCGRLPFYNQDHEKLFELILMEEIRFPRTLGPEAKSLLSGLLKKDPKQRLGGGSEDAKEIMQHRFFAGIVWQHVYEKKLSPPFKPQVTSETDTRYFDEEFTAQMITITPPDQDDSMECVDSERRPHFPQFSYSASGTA

[11] = target: Glycogen synthase kinase-3 beta (Homo sapiens) (UniProt P49841); experiment: Inhibition of GSK3b (unknown origin) at 50 ug/ml by mobility shift assay relative to control
Glycogen synthase kinase-3 beta (Homo sapiens), sequence (P49841 whole entry, looked up): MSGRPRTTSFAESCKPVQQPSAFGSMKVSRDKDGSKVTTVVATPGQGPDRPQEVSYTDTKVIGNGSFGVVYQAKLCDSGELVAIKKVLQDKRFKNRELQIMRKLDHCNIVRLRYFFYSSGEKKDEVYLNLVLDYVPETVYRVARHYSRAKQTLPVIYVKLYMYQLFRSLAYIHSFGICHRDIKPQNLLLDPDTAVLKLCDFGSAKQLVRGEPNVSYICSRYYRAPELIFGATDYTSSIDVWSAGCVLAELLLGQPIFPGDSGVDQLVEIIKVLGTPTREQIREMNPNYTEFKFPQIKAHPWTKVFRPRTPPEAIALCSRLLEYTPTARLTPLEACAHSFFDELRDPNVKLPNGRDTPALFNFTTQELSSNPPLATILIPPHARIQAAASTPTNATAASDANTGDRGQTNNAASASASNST

[12] = target: Serine/threonine-protein kinase pim-1 (Homo sapiens) (UniProt P11309); experiment: Inhibition of PIM1 (unknown origin) at 50 ug/ml by mobility shift assay relative to control
Serine/threonine-protein kinase pim-1 (Homo sapiens), sequence (P11309 whole entry, looked up): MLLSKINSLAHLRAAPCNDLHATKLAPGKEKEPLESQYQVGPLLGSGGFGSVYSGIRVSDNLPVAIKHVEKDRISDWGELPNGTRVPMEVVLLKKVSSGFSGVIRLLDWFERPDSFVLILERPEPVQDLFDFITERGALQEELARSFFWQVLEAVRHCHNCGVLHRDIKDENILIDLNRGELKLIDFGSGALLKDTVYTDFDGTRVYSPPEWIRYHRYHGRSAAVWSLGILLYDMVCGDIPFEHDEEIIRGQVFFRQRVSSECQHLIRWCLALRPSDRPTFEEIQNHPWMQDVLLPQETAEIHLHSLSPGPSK

[13] = target: T4, 3-phosphoinositide-dependent protein kinase 1 (Homo sapiens) (UniProt O15530); experiment: Inhibition of PDK1 (unknown origin) at 50 ug/ml by mobility shift assay relative to control
T4 sequence (whole entry): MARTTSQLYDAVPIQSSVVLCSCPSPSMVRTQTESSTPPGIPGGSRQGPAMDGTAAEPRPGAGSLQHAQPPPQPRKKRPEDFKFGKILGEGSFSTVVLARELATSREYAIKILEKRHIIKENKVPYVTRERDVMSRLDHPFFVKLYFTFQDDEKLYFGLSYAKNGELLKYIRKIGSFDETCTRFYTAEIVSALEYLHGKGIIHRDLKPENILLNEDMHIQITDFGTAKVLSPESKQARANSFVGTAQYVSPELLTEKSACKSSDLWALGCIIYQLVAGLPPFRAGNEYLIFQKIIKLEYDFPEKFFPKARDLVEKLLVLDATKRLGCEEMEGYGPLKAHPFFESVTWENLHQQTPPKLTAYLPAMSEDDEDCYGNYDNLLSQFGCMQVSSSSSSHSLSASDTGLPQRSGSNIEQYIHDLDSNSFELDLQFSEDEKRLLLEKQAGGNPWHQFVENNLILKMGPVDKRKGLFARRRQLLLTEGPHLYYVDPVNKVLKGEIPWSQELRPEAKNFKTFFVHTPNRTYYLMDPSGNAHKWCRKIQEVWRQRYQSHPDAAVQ

[14] = target: Tyrosine-protein kinase SYK (Homo sapiens) (UniProt P43405); experiment: Inhibition of SYK (unknown origin) at 50 ug/ml by mobility shift assay relative to control
[15] = target: Protein kinase C theta (Homo sapiens) (UniProt Q04759); experiment: Inhibition of PKCtheta (unknown origin) at 50 ug/ml by mobility shift assay relative to control
Protein kinase C theta (Homo sapiens), sequence (Q04759 whole entry, looked up): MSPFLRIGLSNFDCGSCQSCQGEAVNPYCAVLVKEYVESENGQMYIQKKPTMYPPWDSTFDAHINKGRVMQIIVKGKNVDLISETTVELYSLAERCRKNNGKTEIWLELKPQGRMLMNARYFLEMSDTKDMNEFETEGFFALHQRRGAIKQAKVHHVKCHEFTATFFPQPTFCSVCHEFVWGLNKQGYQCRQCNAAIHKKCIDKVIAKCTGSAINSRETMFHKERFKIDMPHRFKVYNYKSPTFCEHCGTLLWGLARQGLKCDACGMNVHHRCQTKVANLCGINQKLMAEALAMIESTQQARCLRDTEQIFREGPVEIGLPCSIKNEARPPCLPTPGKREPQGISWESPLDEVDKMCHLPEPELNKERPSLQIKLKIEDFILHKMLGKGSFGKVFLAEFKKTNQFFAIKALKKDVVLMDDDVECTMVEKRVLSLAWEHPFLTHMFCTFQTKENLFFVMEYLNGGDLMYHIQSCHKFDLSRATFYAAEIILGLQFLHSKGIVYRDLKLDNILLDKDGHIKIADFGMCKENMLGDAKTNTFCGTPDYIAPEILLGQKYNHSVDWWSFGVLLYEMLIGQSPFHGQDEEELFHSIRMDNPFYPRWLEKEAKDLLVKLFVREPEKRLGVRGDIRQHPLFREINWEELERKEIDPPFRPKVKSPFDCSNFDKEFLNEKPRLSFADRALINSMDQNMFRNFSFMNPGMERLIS

SMILES: CN[C@@H]1C[C@H]2O[C@@](C)([C@@H]1OC)n1c3ccccc3c3c4c(c5c6ccccc6n2c5c31)C(=O)NC4
IC50 [1]: 0.0022 µM

SMILES: C=C(C)c1ccc2c(c1)CC[C@H]1[C@@](CO)(C(=O)O)CCC[C@]21C
IC50 [2]: > 100 µM

SMILES: CC(=O)c1ccc2c(c1)CC[C@H]1[C@@](CO)(C(=O)O)CCC[C@]21C
IC50 [2]: > 100 µM

SMILES: CC(C)(O)c1ccc2c(c1)CC[C@H]1[C@](C)(C(=O)O)CCC[C@]21C
IC50 [2]: > 100 µM

SMILES: CC(C)c1cc2c(cc1O)[C@@]1(C)CCC[C@@](C)(C=O)[C@@H]1CC2 [18-OXOFERRUGINOL]
IC50 [2]: > 100 µM

Results, then the molecule that gave them:

IC50 [2]: > 100 µM
SMILES: CC(C)c1ccc2c(c1)CC[C@H]1[C@@](CO)(C(=O)O)CCC[C@]21C

inhibition [3]: 67.1%
inhibition [4]: -7.3%
inhibition [5]: 69.9%
inhibition [6]: 17.6%
inhibition at 50 ug/ml [7]: 74.9%
inhibition [8]: 52.5%
inhibition [9]: 61.2%
inhibition [10]: 53.6%
inhibition [11]: 20.1%
inhibition [12]: 10.7%
inhibition [13]: 46.1%
IC50 [2]: > 100 µM
inhibition [14]: 81%
inhibition [15]: 0.9%
SMILES: CC(C)c1ccc2c(c1)CC[C@H]1[C@](C)(C(=O)O)CCC[C@]21C [DEHYDROABIETIC ACID]
